The record followed here is paper PMC9603770, “Broad-Spectrum Inhibitors against Class A, B, and C Type β-Lactamases to Block the Hydrolysis against Antibiotics: Kinetics and Structural Characterization” (Microbiology Spectrum, 2022).

In data set [1] the test system is β-lactamase-producing clones. In words: MIC fold reduction of meropenem in combination with inhibitor (discussion summary). Format: cell-based, Escherichia coli. The text has this:
The combination of D2573 with cephalosporins (cefotaxime plus D2573 and cefoxitin plus D2573) or the combination of D2148 with cephalosporins (cefotaxime plus D2148 and cefoxitin plus D2148) or the combination of D63 with cephalosporins (cefotaxime plus D63 and cefoxitin plus D63) had […] MICs than the control. […] The MIC and MBC data are in harmony with in silico data which concluded that three potential inhibitors, D2573, D2148, and D63, are potential candidates against broad-spectrum β-lactamase-producing bacterial strains.
The MICs of various antibiotics in combination with selected inhibitors were determined on DH5α cells and clinical strains (AK-10, AK-12,AK-18, NP-6, AK-67, AK-66) using the microdilution method; Clinical and Laboratory Standards Institute (CLSI) guidelines were used to interpret the results ([37], [38]). In a series of 2-fold dilutions, E. coli cells were given escalating doses of antibiotics from 0 to 512 μg/mL.

Data set [2] concerns the target T1, Amp-C (Escherichia coli, UniProt P00811).
T1 construct: made in house; host or cells: E. coli (DH5 and BL21(DE3) named; pET-28a)
In words: IC50, nitrocefin hydrolysis. The class given is biochemical. How it is done:
(§1) The IC50 values of all the proteins were calculated to determine the efficacy of each inhibitor. The IC50 values were calculated for the proteins NDM-1, Amp-C, KPC-2, CTX-M-15, SHV-1, and TEM-1 with each of its inhibitors (D63, D2148, and D2573) to compare their efficacies at a fixed concentration 100 μΜ of nitrocefin (Table 7).
(§2) Overexpression of proteins was done by adding 0.5 mM IPTG (isopropyl-β-D-thiogalactopyranoside), and purification of the NDM-1, SHV-1, TEM-1, CTX-M-15, KPC-2, and Amp-C recombinant protein was performed with an Ni-NTA affinity column. […] The final concentration of the protein was estimated with a NanoDrop instrument.
(§3) The direct competition between the β-lactamase substrate, nitrocefin, and their inhibitors were used to determine the IC50 and Ki values. Using a Shimadzu UV-VIS spectrophotometer UV-1800, variable quantities of inhibitor D63, D2148, and D2573 (0 to 3 μM), fixed concentrations of purified proteins (1 nM), and nitrocefin substrate (100 μM) were used in a reaction at 486 nm. […] The IC50 value is the inhibitor concentration that inhibits enzyme hydrolytic activity by 50% (50% inhibitory concentration).

For a further data set, the target named is T2, CTX-M-15 (Escherichia coli, UniProt Q9EXV5).
T2 construct: made in house; host or cells: E. coli (DH5 and BL21(DE3) named)
T2 sequence (Q9EXV5 29-291, species assumed): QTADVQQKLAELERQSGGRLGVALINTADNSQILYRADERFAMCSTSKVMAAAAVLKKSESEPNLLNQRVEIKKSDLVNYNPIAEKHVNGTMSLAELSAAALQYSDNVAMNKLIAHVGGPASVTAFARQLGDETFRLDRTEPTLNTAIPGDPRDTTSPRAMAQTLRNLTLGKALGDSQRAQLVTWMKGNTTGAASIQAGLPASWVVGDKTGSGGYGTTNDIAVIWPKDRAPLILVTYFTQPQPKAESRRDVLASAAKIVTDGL
In words: IC50, nitrocefin hydrolysis. The class given is biochemical. The following applies: 100 μΜ nitrocefin. Here is the method: as §1, §2, §3

The target in the next data set is T3, KPC-2 (Klebsiella pneumoniae, UniProt Q9F663).
T3 construct: made in house; host or cells: E. coli (DH5 and BL21(DE3) named; pET-28a)
T3 sequence (Q9F663 25-293, looked up, species assumed): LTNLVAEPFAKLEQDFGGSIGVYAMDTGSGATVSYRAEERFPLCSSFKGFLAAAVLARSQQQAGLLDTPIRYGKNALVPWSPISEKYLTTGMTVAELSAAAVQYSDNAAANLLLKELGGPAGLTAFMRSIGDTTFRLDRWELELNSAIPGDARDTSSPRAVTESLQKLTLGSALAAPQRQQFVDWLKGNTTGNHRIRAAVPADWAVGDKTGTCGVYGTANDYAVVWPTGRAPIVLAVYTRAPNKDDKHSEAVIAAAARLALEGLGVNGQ
In words: IC50, nitrocefin hydrolysis. The class given is biochemical. The following applies: 100 μΜ nitrocefin. How it is done:
as §1, §2, §3

In the next data set the target is T4, NDM-1 (Klebsiella pneumoniae, UniProt C7C422).
T4 construct: made in house; host or cells: E. coli (DH5 and BL21(DE3) named)
T4 sequence (C7C422 29-270, looked up, species assumed): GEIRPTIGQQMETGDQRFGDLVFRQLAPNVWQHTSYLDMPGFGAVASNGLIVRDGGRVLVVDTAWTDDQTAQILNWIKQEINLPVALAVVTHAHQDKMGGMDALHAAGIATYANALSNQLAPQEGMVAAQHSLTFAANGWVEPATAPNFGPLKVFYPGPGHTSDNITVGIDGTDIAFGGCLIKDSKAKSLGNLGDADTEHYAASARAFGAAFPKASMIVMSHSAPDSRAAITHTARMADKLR
In words: IC50, nitrocefin hydrolysis. The following applies: 100 μΜ nitrocefin. The class given is biochemical. How it is done: as §1, §2, §3

For the next data set, the target named is T5, SHV-1 (Klebsiella pneumoniae, UniProt P0AD64).
T5 construct: made in house; host or cells: E. coli (DH5 and BL21(DE3) named; pET-28a)
T5 sequence (P0AD64 22-286): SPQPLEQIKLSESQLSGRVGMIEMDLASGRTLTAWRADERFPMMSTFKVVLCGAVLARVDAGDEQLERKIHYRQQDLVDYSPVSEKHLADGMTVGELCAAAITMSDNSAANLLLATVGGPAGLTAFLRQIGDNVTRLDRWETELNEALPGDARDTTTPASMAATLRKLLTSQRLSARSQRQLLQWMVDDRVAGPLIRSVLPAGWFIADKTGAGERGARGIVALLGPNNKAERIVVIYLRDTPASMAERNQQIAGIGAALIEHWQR
The data set is described as follows: IC50, nitrocefin hydrolysis. The class given is biochemical. How it is done:
as §1, §2, §3

The next data set concerns the target T6, TEM-1 (Escherichia coli, UniProt P62593).
T6 construct: made in house; host or cells: E. coli (DH5 and BL21(DE3) named; pET-28a)
The data set is described as follows: IC50, nitrocefin hydrolysis. Format: biochemical. The following applies: 100 μΜ nitrocefin. Here is the method:
as §1, §2, §3

In data set [3] the target is T1, Amp-C. In words: Fluorescence quenching. The class given is binding. The following applies: 298 K. How it is done: Fluorescence quenching can be either dynamic or static in nature. The fluorescence intensity was calculated to understand the mechanism of protein quenching from all three classes of β-lactamase with D63, D2148, and D2573. The KSV (Stern–Volmer quenching constant; [Q] is the concentration of inhibitor) of all protein-inhibitor complexes was calculated from the slope of plot Fo/F (fluorescence intensities in the absence and presence of quencher) versus [Q], whereas number of binding sites (n) and Kb values for all combinations of proteins and inhibitors were determined by the slope and intercept of plot log (Fo/F – 1) versus log[Q] (Table 9). In this study, the KSV values were obtained, on the order of 10^2 to 10^5, for all enzyme-inhibitor complexes.
A Shimadzu RF-5301PC spectrofluorometer (Shimadzu Corporation, Kyoto, Japan) was used to measure the fluorescence spectra. Quenching was observed by measuring intrinsic fluorescence at 295 nm between 300 and 400 nm. The emission and excitation slits were both adjusted to 5 nm. Then, 2 μM each D2573, D2148, and D63 were added to a 3-mL sample containing 2 μM protein ([…]). All the fluorescence intensities were corrected for the inner filter effect. The determination of the number of binding sites (n) and binding constant (Kb) at 298 K temperature for all the protein-inhibitor combinations from the Stern-Volmer equation and modified Stern-Volmer equation (equations 4 and 5). (4) (F0)/F = 1 + Ksv[Q] (5) Log (F0 − F)/F= logKb + n log[Q]
Fo and F are the fluorescence intensities in the absence and presence of quencher (D63, D2148, D2573).

The next data set in a line: MTT cytotoxicity assay. The class given is cell-based. The following applies: mouse, NIH 3T3 cells, 50 μg/mL, read-out: cellular viability. How it is done:
(§4) Cytotoxicity of lead molecules D2573, D2148, and D63 on NIH 3T3 cells was evaluated by MTT assay. The relative cellular viability of NIH 3T3 cells in the presence of each sample D2573, D2148, and D63 at different concentrations (12.5 μg/mL, 25 μg/mL, and 50 μg/mL) is shown in Fig. 6.
(§5) A cytotoxicity experiment was performed on NIH 3T3 cells. The NIH 3T3 cells were grown at 37°C in Dulbecco’s modified Eagle’s medium (DMEM) supplemented with 10% fetal bovine serum (FBS) and 1% antibiotic, penicillin-streptomycin (pen-strep), in a humidified incubator with 5% CO2. Sterile conditions were maintained at all times. Cells (~10^5 cells/well) were seeded in 96-well plates and allowed to adhere overnight. The cells were subsequently given different quantities of the lead compounds D2573, D2148, and D63 (12.5 μg/mL, 25 μg/mL, and 50 μg/mL, respectively). A conventional 3-(4,5-dimethylthiazol-2-yl)-2,5-diphenyl tetrazolium bromide (MTT) test was used to measure cell survival after 24 h. The supernatants were removed, and each well was filled with 90 μL of new medium and 10 μL of MTT (1 mg/mL) solution, which was then incubated for 4 h at 37°C. The formazan crystals generated during the reduction of MTT were dissolved in 150 μL of dimethyl sulfoxide (DMSO), and the absorbance was measured by measuring the optical density using a spectrophotometer at a wavelength of 570 nm.

For another data set, the system named is NIH 3T3 cells. In words: MTT cytotoxicity assay. Format: cell-based. The following applies: 24 h; for cellular viability: 50 μg/mL; for cytotoxicity (result in words): up to 50 μg/mL. How it is done: as §4, §5
(Tetrazolium assays rely on reduction of a dye to a coloured formazan, in cell work by metabolically active cells.)

T1 sequence (P00811 20-377): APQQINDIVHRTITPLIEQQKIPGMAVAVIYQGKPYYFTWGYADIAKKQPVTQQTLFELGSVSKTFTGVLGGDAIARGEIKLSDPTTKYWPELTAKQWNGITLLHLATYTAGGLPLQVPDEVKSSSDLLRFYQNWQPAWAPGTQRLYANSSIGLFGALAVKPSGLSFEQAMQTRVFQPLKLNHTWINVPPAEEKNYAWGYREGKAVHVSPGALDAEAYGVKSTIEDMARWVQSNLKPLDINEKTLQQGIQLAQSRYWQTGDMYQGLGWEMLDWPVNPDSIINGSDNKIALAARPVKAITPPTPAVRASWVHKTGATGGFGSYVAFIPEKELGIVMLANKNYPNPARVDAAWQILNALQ
T6 sequence (P62593 24-286 limits assumed): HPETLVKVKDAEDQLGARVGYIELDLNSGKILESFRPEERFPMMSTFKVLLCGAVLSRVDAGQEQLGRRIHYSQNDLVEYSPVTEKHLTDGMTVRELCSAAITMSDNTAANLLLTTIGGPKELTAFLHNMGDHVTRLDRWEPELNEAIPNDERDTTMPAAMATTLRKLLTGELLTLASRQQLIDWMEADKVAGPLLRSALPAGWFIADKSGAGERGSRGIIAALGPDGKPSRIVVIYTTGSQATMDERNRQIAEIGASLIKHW

The term IC50 denotes the concentration needed to halve the response being measured. By viability is commonly meant a per cent measure of how many cells are alive, often set against a control. As for `O=C(CN1C(=O)c2ccccc2S1(=O)=O)c1ccc(O)c(O)c1` [D63, 2-[2-(3,4-dihydroxyphenyl)-2-oxoethyl]-1H-1,2-benzisothiazole-1,1,3(2H)-trione], the “Reduction of MIC of meropenem in combination with inhibitor” value (from here on “Reduction of MIC … with inhibitor”) in data set [1] (class A β-lactamases) worked out at 2 fold; in data set [1] (class B and C β-lactamases), 4 fold. Besides, the IC50 at Amp-C [2] turned out to be 0.609 nM; at CTX-M-15 it was 0.779 nM; at KPC-2, 0.695 nM; on NDM-1, 0.733 nM; at SHV-1 it was 0.649 nM; on TEM-1, 0.726 nM. The “n (number of binding sites)” value at Amp-C [3] came to 0.8493. For the same compound, the viability at 24 h, 50 μg/mL in “MTT cytotoxicity assay” was around 78%. In the data set on NIH 3T3 cells, the cellular viability was above 75%. Also, in the data set on NIH 3T3 cells, the “cytotoxicity (result in words)” value is reported as “nontoxic”.

For the compound `O=C(O)c1ccccc1C(=O)N1CCN(c2nc(-c3ccccc3)ns2)CC1` [D2573, 2-{[4-(3-phenyl-1,2,4-thiadiazol-5-yl)piperazino]carbonyl}benzoic acid], the “Reduction of MIC … with inhibitor” value in data set [1] (all selected β-lactamase enzymes) was found to be 2 fold. In addition, the IC50 at Amp-C [2] amounted to 0.655 nM; at CTX-M-15 it was 0.731 nM; at KPC-2, 0.667 nM; on NDM-1, 0.624 nM; on SHV-1, 0.655 nM; on TEM-1, 0.634 nM. On Amp-C [3], the “n (number of binding sites)” value amounted to 0.7042. The viability at 24 h, 50 μg/mL in the data set “MTT cytotoxicity assay” was 82%. Further, the cellular viability in the data set with NIH 3T3 cells was above 75%. The “cytotoxicity (result in words)” value in the data set with NIH 3T3 cells was “nontoxic”.

Regarding `O=C(c1ccccc1)C1CCN(C(=O)CN2C(=O)c3ccccc3C2=O)CC1` [D2148, 2-[2-(4-benzoylpiperidino) -2-oxoethyl]-1H-isoindole-1,3(2H)-dione], the “Reduction of MIC … with inhibitor” value in [1] (class A β-lactamases) worked out at 2 fold; in data set [1] (class B and C β-lactamases), 4 fold. The IC50 on Amp-C [2] is 0.714 nM; at CTX-M-15, 0.638 nM; at KPC-2, 0.744 nM; on NDM-1, 0.632 nM; at SHV-1, 0.587 nM; on TEM-1, 0.449 nM. In addition, the “n (number of binding sites)” value at Amp-C [3] was 1.2792. The viability at 24 h, 50 μg/mL in “MTT cytotoxicity assay” is around 78%. The compound further gave a cellular viability with NIH 3T3 cells above 75%. Moreover, in the data set with NIH 3T3 cells, the “cytotoxicity (result in words)” value is recorded as “nontoxic”.
